Assay results as given in patent US6498139B1, “Remedies for diseases caused by insulin resistance” (Daiichi Pharmaceutical Co., Ltd., priority 1997, dated 2002).

Tested on: 14-3-3 protein binding to IRS-1
Assay: Amount of 14-3-3 protein binding to IRS-1 in HepG2 hepatoma cells overexpressing IRS-1
Format: cell-based
Details: IRS-1 overexpressed by adenovirus expression system

C=C1[C@@H](O)[C@@H]2O[C@]3(CC[C@H](/C=C/[C@@H](C)[C@@H]4CC(C)=C[C@@]5(O[C@H](C[C@@](C)(O)C(=O)O)CC[C@H]5O)O4)O3)CC[C@H]2O[C@@H]1[C@@H](O)C[C@H](C)[C@H]1O[C@@]2(CCCCO2)CC[C@H]1C [okadaic acid]
amount of 14-3-3 protein binding to IRS-1: significantly increased

insulin
amount of 14-3-3 protein binding to IRS-1: not changed
